In PubChem BioAssay (NCI):
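Growth conditions: 96-well plates. Treatment: test compound, 48 hours, 5 concentrations. Analysis: linear interpolation between bracketing concentrations; unreached endpoints set to highest concentration. At the TGI there is no net growth.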

Columns and labels:
Assay in all cases: NCI-60 cell line screen, 48 h
COLO 205 colon = tested on: COLO 205 colon
SK-MEL-5 melanoma = tested on: SK-MEL-5 melanoma
U251 CNS = tested on: U251 CNS
ACHN renal = tested on: ACHN renal
SK-MEL-2 melanoma = tested on: SK-MEL-2 melanoma
T-47D breast = tested on: T-47D breast
SF-539 CNS = tested on: SF-539 CNS
HS 578T breast = tested on: HS 578T breast
UO-31 renal = tested on: UO-31 renal
NCI-H226 lung = tested on: NCI-H226 lung
MDA-MB-231 breast = tested on: MDA-MB-231 breast
TK-10 renal = tested on: TK-10 renal
NCI-H23 lung = tested on: NCI-H23 lung
EKVX NSCLC = tested on: EKVX NSCLC
786-0 renal = tested on: 786-0 renal
SK-OV-3 ovarian = tested on: SK-OV-3 ovarian
CAKI-1 renal = tested on: CAKI-1 renal
A498 renal = tested on: A498 renal

Row | Structure (SMILES) | TGI (COLO 205 colon) [µM] | TGI (SK-MEL-5 melanoma) [µM] | TGI (U251 CNS) [µM] | TGI (ACHN renal) [µM] | TGI (SK-MEL-2 melanoma) [µM] | TGI (T-47D breast) [µM] | TGI (SF-539 CNS) [µM] | TGI (HS 578T breast) [µM] | TGI (UO-31 renal) [µM] | TGI (NCI-H226 lung) [µM] | TGI (MDA-MB-231 breast) [µM] | TGI (TK-10 renal) [µM] | TGI (NCI-H23 lung) [µM] | TGI (EKVX NSCLC) [µM] | TGI (786-0 renal) [µM] | TGI (SK-OV-3 ovarian) [µM] | TGI (CAKI-1 renal) [µM] | TGI (A498 renal) [µM]
1 | CC1C(=NO)C(C)C(c2ccccc2)N(N=O)C1c1ccccc1 (configuration not stated) | 31.5 | 33.1 | 35.4 | 45.7 | 39.5 | 38.9 | 26.5 | 36.7 | 39.1 | 55.2 | 32.9 | 55.7 | 77.1 | 81.8 | 42.7 | 22.7 |  | 
2 | c1ccc(N=C(N2CCOCC2)N(CCN2CCOCC2)c2ccccc2)cc1 | > 100 | > 100 | > 100 |  | > 100 | > 100 | > 100 | > 100 | > 100 | > 100 | > 100 | > 100 | > 100 | > 100 | > 100 | > 100 | > 100 | 
3 | CC(C)(C)OC(=O)[C@@H]1CCC(=S)N1Cc1ccccc1 | > 100 | > 100 | > 100 | > 100 | > 100 |  | > 100 |  | > 100 | > 100 | > 100 | > 100 | > 100 | > 100 | > 100 | > 100 | > 100 | > 100
4 | COc1cc(C2SCC(=O)N2Cc2ccccc2)cc(OC)c1OC (configuration not stated) | > 100 | > 100 | > 100 | > 100 | > 100 |  | > 100 | > 100 | > 100 | > 100 | > 100 | > 100 | > 100 | > 100 | > 100 | > 100 | > 100 | 
5 | CCOC(=O)CC(=O)C(=O)NNC1=NCCN1 | > 100 | > 100 | > 100 | > 100 | > 100 | > 100 | > 100 | > 100 | > 100 | > 100 | > 100 | > 100 | > 100 | > 100 | > 100 | > 100 |  | 
6 | Cc1ccc2nc(N/N=C/c3ccc(C)s3)cc(C)c2c1 | 12.2 | 20.4 | 27.6 | 24.1 | 35.3 | 41.9 | 24.4 | 39.2 |  | 31.7 | 31.8 | 25.2 | 22 | 26.1 | 11.3 | 32.7 | 30.9 | 
7 | CCN1CCN(c2nc3ccccc3nc2C(=O)c2ccc(OC)cc2)CC1 | > 100 | > 100 | > 100 | > 100 | > 100 | > 100 | > 100 | > 100 | > 100 |  |  | 70.4 | > 100 | > 100 | 64.8 | > 100 | > 100 | > 100
